Read-outs that look alike come from different tables or passages of the source.

One assay has as its target T1, PARP7 (Homo sapiens, UniProt Q7Z3E1).
T1 construct: purchased BPS 80527
T1 sequence (Q7Z3E1 1-657): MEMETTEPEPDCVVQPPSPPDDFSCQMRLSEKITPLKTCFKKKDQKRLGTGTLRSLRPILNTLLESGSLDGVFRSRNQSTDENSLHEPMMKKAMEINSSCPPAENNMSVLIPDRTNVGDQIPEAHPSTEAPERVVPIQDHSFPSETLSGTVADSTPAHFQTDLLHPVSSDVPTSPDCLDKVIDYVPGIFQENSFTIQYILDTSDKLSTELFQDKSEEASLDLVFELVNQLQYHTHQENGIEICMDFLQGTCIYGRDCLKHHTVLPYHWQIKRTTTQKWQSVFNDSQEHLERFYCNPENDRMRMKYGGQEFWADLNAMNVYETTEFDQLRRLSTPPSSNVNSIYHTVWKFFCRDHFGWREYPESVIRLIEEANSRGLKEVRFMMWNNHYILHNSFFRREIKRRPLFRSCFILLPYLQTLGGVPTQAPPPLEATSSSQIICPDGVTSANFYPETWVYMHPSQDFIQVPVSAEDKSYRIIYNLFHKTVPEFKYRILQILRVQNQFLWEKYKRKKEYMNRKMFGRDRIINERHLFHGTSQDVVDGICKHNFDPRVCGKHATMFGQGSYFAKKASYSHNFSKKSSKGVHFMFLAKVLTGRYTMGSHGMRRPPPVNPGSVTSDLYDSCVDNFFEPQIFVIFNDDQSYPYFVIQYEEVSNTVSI
The assay is described as follows: Test of inhibitory activity against PARP7 enzyme (PARP7 FLAG-tag, Probe A, time-resolved fluorescence). It counts as biochemical. The conditions noted are these: PARP7 12 nM, Probe A 2 nM, 1 hr room temperature.

The next assay has as its system NCI-H1373 cells. The assay is described as follows: Cell proliferation inhibition assay (CTG method). Type of assay: cell-based, human. The conditions noted are these: read-out: IC50 (nM) for NCI-H1373 cell viability.
[1] abbreviates: Homo sapiens, NCI-H1373, 144 h, NCI-H1373 cells, 6 days incubation, CTG method.

Turning to `C[C@@H](COCCC(=O)N1CCN2c3ncc(C(F)(F)F)cc3C(=O)CC2C1)Nc1cn[nH]c(=O)c1C(F)(F)F` (stereo partly drawn) [Compound 37, 8-(3-((S)-2-((6-oxo-5-(trifluoromethyl)-1,6-dihydropyridazin-4-yl)amino)propoxy)propionyl)-3-(trifluoromethyl)-6,6a, 7,8,9,10-hexahydro-5H-pyrazino[1,2-a][1,8]naphthyridin-5-one], the IC50 is less than 10 nM on PARP7 and 100 to 500 nM in the assay with NCI-H1373 cells (setting [1]).
The matching figures for `C[C@@H](COCCC(=O)N1CCN2c3ncc(C(F)(F)F)cc3C(O)CC2C1)Nc1cn[nH]c(=O)c1C(F)(F)F` (stereo partly drawn) [Compound 38]: less than 10 nM and 100 to 500 nM.
As to `CCN1C(=O)[C@@H]2CN(C(=O)CCOC[C@H](C)Nc3cn[nH]c(=O)c3C(F)(F)F)CCN2c2ncc(C(F)(F)F)cc21` [Compound 40, (S)-5-ethyl-8-(3-((S)-2-((6-oxo-5-(trifluoromethyl)-1,6-dihydropyridazin-4-yl)amino)propoxy)propionyl)-3-(trifluoromethyl)-7,8,9,10-tetrahydro-5H-pyrazino[1,2-a]pyrido[3,2-e]pyrazin-6(6aH)-one], the IC50 against PARP7 is less than 10 nM; in the assay with NCI-H1373 cells (Homo sapiens, NCI-H1373, 144 h) it was less than 100 nM.
In the case of `C[C@@H](COCCC(=O)N1CCN2c3ncc(C(F)(F)F)cc3N(CCO)C(=O)[C@@H]2C1)Nc1cn[nH]c(=O)c1C(F)(F)F` [Compound 41, (S)-5-(2-hydroxyethyl)-8-(3-((S)-2-((6-oxo-5-(trifluoromethyl)-1,6-dihydropyridazin-4-yl)amino)propoxy)propionyl)-3-(trifluoromethyl)-7,8,9,10-tetrahydro-5H-pyrazino[1,2-a]pyrido[3,2-e]pyrazino-6(6aH)-one], the IC50 against PARP7 was less than 10 nM; in the assay with NCI-H1373 cells (setting [1]) it was 500 to 5000 nM.
In the same order, the values of `C[C@@H](COCCC(=O)N1CCN2c3ncc(C(F)(F)F)cc3C(=O)N(C)C[C@H]2C1)Nc1cn[nH]c(=O)c1C(F)(F)F` [Compound 42, (S)-6-methyl-9-(3-((S)-2-((6-oxo-5-(trifluoromethyl)-1,6-dihydropyridazin-4-yl)amino)propoxy)propionyl)-3-(trifluoromethyl)-7,7a, 8,9,10,11-hexahydropyrazino[1,2-a]pyrido[3,2-f][1,4]diazepan-5(6H)-one] are less than 10 nM and 500 to 5000 nM.
The matching figures for `C[C@@H](COCCC(=O)N1CCN2c3ncc(C(F)(F)F)cc3N(C)CCC2C1)Nc1cn[nH]c(=O)c1C(F)(F)F` (stereo partly drawn) [Compound 43, 5-((((2S)-1-(3-(5-methyl-3-(trifluoromethyl))-6,7,7a, 8,10,11-hexahydropyrazino[1,2-d]pyrido[3,2-b] [1,4]diazepine-9(5H)-yl)-3-oxopropoxy)prop-2-yl)amino)-4-(trifluoromethyl)pyridazin-3(2H)-one]: less than 10 nM and 100 to 500 nM.
The matching figures for `C[C@@H](COCCC(=O)N1CCN2c3ncc(C(F)(F)F)nc3OCC[C@H]2C1)Nc1cn[nH]c(=O)c1C(F)(F)F` [Compound 47, 5-(((S)-1-(3-oxo-3-((S)-3-(trifluoromethyl)-6,7,7a, 8, 10, 11-hexahydro-9H-bipyrazino[2,3-b:1′, 2′-d][1, 4]oxazepane-9-yl)propoxy)prop-2-yl)amino)-4-(trifluoromethyl)pyridazin-3(2H)-one]: less than 10 nM and less than 100 nM.
As for `C[C@@H](COCCC(=O)N1CCN2c3ncc(C(F)(F)F)nc3N(C)C(=O)[C@H]2C1)Nc1cn[nH]c(=O)c1C(F)(F)F` [Compound 48, (R)-5-methyl-8-(3-((S)-2-((6-oxo-5-(trifluoromethyl)-1,6-dihydropyridazin-4-yl)amino)propoxy)propionyl)-3-(trifluoromethyl)-7,8,9, 10-tetrahydro-5H-bipyrazino[1,2-a:2′, 3′-e]pyrazin-6(6aH)-one], the 50% inhibitory concentration (IC50) against PARP7 was less than 10 nM; with NCI-H1373 cells (setting [1]), less than 100 nM.
In the same order, the values of `C[C@@H](COCCC(=O)N1CCN2c3ncc(C(F)(F)F)c(C#N)c3OC[C@H]2C1)Nc1cn[nH]c(=O)c1C(F)(F)F` [Compound 51, (R)-8-(3-((S)-2-((6-oxo-5-(trifluoromethyl)-1,6-dihydropyridazin-4-yl)amino)propoxy)propionyl)-3-(trifluoromethyl)-6,6a, 7,8,9, 10-hexahydropyrazino[1,2-d]pyrido[3,2-b][1, 4]oxazinane-4-carbonitrile] are less than 10 nM and 100 to 500 nM.
Take `Cc1c(C(F)(F)F)cnc2c1OC[C@H]1CN(C(=O)CCOC[C@H](C)Nc3cn[nH]c(=O)c3C(F)(F)F)CCN21` [Compound 52, 5-(((S)-1-(3-((R)-4-methyl-3-(trifluoromethyl)-6a, 7,9, 10-tetrahydropyrazino[1,2-d]pyrido[3,2-b][1, 4]oxazinane-8(6H)-yl)-3-oxopropoxy)prop-2-yl)amino)-4-(trifluoromethyl)pyridazin-3(2H)-one]: the concentration for half-maximal inhibition (IC50) at PARP7 is less than 10 nM; with NCI-H1373 cells (setting [1]), less than 100 nM.
In the same order, the values of `C[C@@H](COCCC(=O)N1CCN2c3ncc(C#N)cc3N(C)C(=O)[C@@H]2C1)Nc1cn[nH]c(=O)c1C(F)(F)F` [Compound 53] are less than 10 nM and 100 to 500 nM.
In the same order, the values of `C[C@@H](COCCC(=O)N1CCN2c3ncc(C(F)(F)F)nc3N(C)C(=O)[C@@H]2C1)Nc1cn[nH]c(=O)c1C(F)(F)F` [Compound 58, (S)-5-methyl-8-(3-((S)-2-((6-oxo-5-(trifluoromethyl)-1,6-dihydropyridazin-4-yl)amino)propoxy)propionyl)-3-(trifluoromethyl)-7,8,9, 10-tetrahydro-5H-bipyrazino[1,2-a:2′, 3′-e]pyrazin-6(6aH)-one] are less than 10 nM and less than 100 nM.
On to `C[C@@H](COCCC(=O)N1CCN2c3ncc(C(F)(F)F)cc3C=C[C@H]2C1)Nc1cn[nH]c(=O)c1C(F)(F)F` [Compound 60], for which the IC50 at PARP7 was less than 10 nM; with NCI-H1373 cells (NCI-H1373 cells, 6 days incubation, CTG method) it was less than 100 nM.
Turning to `C[C@@H](COC[C@@H](F)C(=O)N1CCN2c3ncc(C(F)(F)F)cc3N(C)C(=O)[C@@H]2C1)Nc1cn[nH]c(=O)c1C(F)(F)F` [Compound 65, (S)-8-((R)-2-fluoro-3-((S)-2-((6-oxo-5-(trifluoromethyl)-1,6-dihydropyridazin-4-yl)amino)propoxy)propionyl)-5-methyl-3-(trifluoromethyl)-7,8,9, 10-tetrahydro-5H-pyrazino[1,2-a]pyrido[3,2-e]pyrazin-6(6aH)-one], the IC50 against PARP7 was less than 10 nM; with NCI-H1373 cells (setting [1]), less than 100 nM.
Take `C[C@@H](COC[C@H](F)C(=O)N1CCN2c3ncc(C(F)(F)F)cc3N(C)C(=O)[C@@H]2C1)Nc1cn[nH]c(=O)c1C(F)(F)F` [Compound 66, (S)-8-((S)-2-fluoro-3-((S)-2-((6-oxo-5-(trifluoromethyl)-1,6-dihydropyridazin-4-yl)amino)propoxy)propionyl)-5-methyl-3-(trifluoromethyl)-7,8,9, 10-tetrahydro-5H-pyrazino[1,2-a]pyrido[3,2-e]pyrazin-6(6aH)-one]: the values for the 50% inhibitory concentration (IC50) against PARP7 and in the assay with NCI-H1373 cells (setting [1]) were less than 10 nM and 500 to 5000 nM, respectively.
In the same order, the values of `C[C@@H](COC[C@H](O)C(=O)N1CCN2c3ncc(C(F)(F)F)cc3C=C[C@@H]2C1)Nc1cn[nH]c(=O)c1C(F)(F)F` [Compound 71] are less than 10 nM and less than 100 nM.
The matching figures for `C[C@@H](COC[C@@H](O)C(=O)N1CCN2c3ncc(C(F)(F)F)cc3C=C[C@@H]2C1)Nc1cn[nH]c(=O)c1C(F)(F)F` [Compound 72]: less than 10 nM and less than 100 nM.
`C[C@@H](COC[C@@H](F)C(=O)N1CCN2c3ncc(C(F)(F)F)cc3C=C[C@@H]2C1)Nc1cn[nH]c(=O)c1C(F)(F)F` [Compound 73]: the half-maximal inhibitory concentration (IC50) against PARP7 was less than 10 nM; in the assay on NCI-H1373 cells (setting [1]) it was less than 100 nM.
As for `C[C@@H](COC[C@H](F)C(=O)N1CCN2c3ncc(C(F)(F)F)cc3C=C[C@@H]2C1)Nc1cn[nH]c(=O)c1C(F)(F)F` [Compound 74], the half-inhibitory concentration (IC50) on PARP7 is less than 10 nM; with NCI-H1373 cells (setting [1]) it was less than 100 nM.
For the compound `C[C@@H](COCCC(=O)N1CCN2c3nc(N)c(C(F)(F)F)cc3COC[C@H]2C1)Nc1cn[nH]c(=O)c1C(F)(F)F` [Compound 77, 5-(((S)-1-(3-((R)-2-amino-3-(trifluoromethyl)-7a, 8, 10, 11-tetrahydro-5H-pyrazino[2,1-c]pyrido[2,3-e][1, 4]oxazepane-9(7H)-yl)-3-oxypropoxy)prop-2-yl)amino)-4-(trifluoromethyl)pyridazin-3(2H)-one], the results for the IC50 on PARP7 and with NCI-H1373 cells (setting [1]) were less than 10 nM and more than 5000 nM, respectively.
In the same order, the values of `C[C@@H](COCCC(=O)N1CCN2c3ncc(C(F)(F)F)cc3CNC(=O)[C@H]2C1)Nc1cn[nH]c(=O)c1C(F)(F)F` [Compound 79, (R)-9-(3-((S)-2-((6-oxo-5-(trifluoromethyl)-1,6-dihydropyridazin-4-yl)amino)propoxy)propionyl)-3-(trifluoromethyl)-5,6,8,9, 10, 11-hexahydropyrazino[1,2-a]pyrido[3,2-f][1, 4]diazepin-7(7aH)-one] are less than 10 nM and 500 to 5000 nM.

Source of the values: patent publication US20240166664A1, “TRIHETEROCYCLIC COMPOUND, PREPARATION METHOD THEREFOR, AND APPLICATION THEREOF” (SHANGHAI APEIRON THERAPEUTICS COMPANY LIMITED, priority 2021, published 2024).
